Results on ten molecules are retold here after patent publication US6645917B2, “Composition for hybrid seed production, process for the preparation of such composition and use thereof” (Council of Scientific and Industrial Research, priority 2002, dated 2003).

Data set [1] concerns wheat. Further details: Effective dose: unit not given beside the values. The conditions noted are these: cited from earlier work; for Female sterility / Germination (%) / Max. seed shriveling (Scale 1-5) / Seed setting: at effective dose; for Female sterility / Germination (%) / Max. seed shriveling (Scale 1-5) / Seed setting / Effective dose: 7-8 mm spike length; for Effective dose: minimum effective dose for complete male sterility.

Data set [2] has as its system wheat plants. Kind of data set: Spray of chemicals in combinations and as individual molecules on wheat plants (Table 3). Type of data set: in vivo. The procedure: The effects of the composition with varied concentration of compound 1 and 2 were evaluated for two crops years. The aqueous solution of the compositions were sprayed on the wheat plants when the Spike length of 7-12 mm. i.e. growth of 20-22 of Zadoks scale, reached between 40-50 days after germination.
In a future of the present invention the calculation of male/female sterility is based on number of seeds and is done as per formula given below:
Male Sterility (%)=(Untreated Control−Bagged Spikes×100/Untreated Control
Female Sterility (%)=(Untreated Control−Bagged Spikes)×100/Untreated Control
The chemical formulation can be used at a rate of 1.8 kg/ha or below (following male: female ratio of 1:2) depending upon genotypes used, date of planting and growth stage. The female lines were sprayed with the chemical combination at the appropriate growth stage and concentration. The spike of 7-12 mm i.e. growth stage 20-22 of Zadoks scale (Zadoks J V, Chang T T and Konzak C F 1974. Weed Research 14: 415421) was ideal for generating effective male sterility in spring wheat. This stage is reached between 40-50 days after germination at optimum time of sowing in most of the genotypes. The date of spray varied depending upon the genotype used. A high volume spray pump may be used so as to cover the complete female plant.

For data set [3], the system named is wheat. The conditions noted are these: cited from earlier work.
[4] abbreviates: at minimum effective dose for complete male sterility.
The mark [5] stands for this setting: wheat, side effects on plant and seed.

Structures are written as SMILES. Read-outs that look alike come from different tables or passages of the source.

`Cc1cc(=O)c(C(=O)[O-])nn1-c1ccc(F)c(Cl)c1.[K+]` [CH9832, potassium 1-[4-fluoro, 3-chlorophenyl]-1,4 dihydro6-methyl-4-oxopyridazine-3-carboxylate]: in data set [1] (setting [4]), the “seed germination (CH9701 compared with CH9832)” value is listed as “comparable” and the “seed setting (CH9832 compared with CH9701)” value is listed as “numerically higher”. In addition, in data set [1] (variety PBW343), the Female sterility was 40.2, the “Germination (%)” value is 90%, the “Max. seed shriveling (Scale 1-5)” value is 2 and the Seed setting was 49.0. Also, in data set [1] (variety PBW343), the Effective dose was 500. Further, in data set [1] (variety WH542), the Female sterility is 10.7, the “Germination (%)” value is listed as 65%, the “Max. seed shriveling (Scale 1-5)” value is 2 and the Seed setting is on record as 65.5. In addition, in data set [1] (variety WH542), the Effective dose is given as 500. In addition, in data set [2], the Female sterility entry is “low female sterility”, the damage to florets result is on record as “no damage to florets”, the male sterility result was “complete male sterility” and the seed set result is “low seed set”.
In the case of `CC(Cl)(CCl)C(=O)[O-].[Na+]` (stereo not shown) [Mendok], in data set [3] (in vivo), the Remarks result is recorded as “Severe plant damage,” and the “Sterility (optimum treatment) Female” value is given as “Significant”. Moreover, in data set [3] (wheat, optimum treatment), the “Sterility (optimum treatment) Male” value is “Poor”.
Take `O=C(O)C1CNC1` [WL 84811]: in data set [3] (wheat, optimum treatment), the “Sterility (optimum treatment) Female” value is reported as “Very” and the “Sterility (optimum treatment) Male” value was “Nearly”. In addition, the Remarks entry in data set [3] (setting [5]) was “Toxic residues in F1”.
As for `CC(Cl)(Cl)C(=O)O` [Dalapon], in data set [3] (wheat, optimum treatment), the “Sterility (optimum treatment) Female” value is “Severe” and the “Sterility (optimum treatment) Male” value is listed as “Partial”. In addition, the Remarks entry in data set [3] (setting [5]) is recorded as “Severe plant damage”.
Regarding `Cc1cc(C)n(-c2ccc(Cl)cc2)c(=O)c1C(=O)[O-].[Na+]` [RH-531], in data set [3] (wheat, optimum treatment), the “Sterility (optimum treatment) Female” value is reported as “Significant” and the “Sterility (optimum treatment) Male” value is recorded as “High”. In data set [3] (setting [5]), the Remarks entry is “Inhibit veg. Growth”.
For `Cc1cc(=O)c(C(=O)[O-])nn1-c1ccc(Cl)cc1.[K+]` [Hybrex], in data set [3] (in vivo), the Remarks result is given as “Risk of damage” and the “Sterility (optimum treatment) Female” value was “Slight”. Besides, in data set [3] (wheat, optimum treatment), the “Sterility (optimum treatment) Male” value is “High”.
As for `Cc1cc(=O)c(C(=O)[O-])nn1-c1ccc(Cl)cc1.[K+]` [CH9701, potassium 1-[4-chlorophenyl]-1,4 dihydro-6-methyl-4-oxopyridazine-3-carboxylate], in data set [1] (setting [4]), the “female sterility (CH9701 compared with CH9832)” value is given as “higher”, the “seed germination (CH9701 compared with CH9832)” value is listed as “comparable” and the “seed shriveling (CH9701 compared with CH9832)” value is recorded as “higher”. Moreover, in data set [1] (variety PBW343), the Female sterility is given as 88.3, the “Germination (%)” value is given as 95%, the “Max. seed shriveling (Scale 1-5)” value is 3 and the Seed setting is 20.0. Further, in data set [1] (variety PBW343), the Effective dose is 500. Also, in data set [1] (variety WH542), the Female sterility was 90.7, the “Germination (%)” value was 85%, the “Max. seed shriveling (Scale 1-5)” value is 2 and the Seed setting was 56.7. Besides, the Effective dose in data set [1] (variety WH542) is listed as 250. In data set [2], the Female sterility result was “high female sterility”, the damage to florets entry is “damage to florets”, the male sterility result is “complete male sterility” and the seed set entry was “low seed set”.
For `O=P(O)(O)CCCl` [Ethephon], in data set [3] (wheat, optimum treatment), the “Sterility (optimum treatment) Female” value is given as “Significant” and the “Sterility (optimum treatment) Male” value is listed as “High”. The Remarks entry in data set [3] (setting [5]) was “Height and seed size”.
For the molecule `COc1nc(=O)n(-c2ccc(Cl)cc2)c(=O)[nH]1.OCCN(CCO)CCO` [DPX 3778], in data set [3] (wheat, optimum treatment), the “Sterility (optimum treatment) Female” value is listed as “Sight” and the “Sterility (optimum treatment) Male” value is reported as “High”. The Remarks entry in data set [3] (setting [5]) is recorded as “Shorter plant, leaf”.
Take `C=C1C[C@]23C[C@@]1(O)CC[C@H]2[C@@]12C=C[C@H](O)[C@@](C)(C(=O)O1)[C@H]2[C@@H]3C(=O)O` [Gibberellic acid]: the “Sterility (optimum treatment) Male” value in data set [3] (wheat, optimum treatment) is “Poor”.
